Measured values published in US20190105367A1, “ANTIMICROBIAL 4-OXOQUINOLIZINES” (Emergent Product Development Gaithersburg Inc., priority 2011, published 2019).
≈ marks a conversion by molar mass, not a printed value. Where two headings read alike, the source gives them in different places.

How the values were obtained:
[1] = test system: S. aureus ATCC 25923; assay: MIC, selected panel of bacterial strains (Example 5); type: cell-based, Staphylococcus aureus
[2] = test system: S. aureus ATCC 43300 (MRSA, FQ-S); assay: as above; type: cell-based, Staphylococcus aureus; settings: Staphylococcus aureus, read-out: MICs against Gram positive bacteria S. aureus ATCC 43300 (MRSA, FQ-S)
[3] = test system: S. aureus BAA-1556 (USA300-Type) (MRSA, FQ-R); assay: as above; type: cell-based, Staphylococcus aureus; settings: Staphylococcus aureus, read-out: MICs against Gram positive bacteria S. aureus BAA-1556 (USA300-Type) (MRSA, FQ-R)
[4] = test system: E. coli ATCC 25922; assay: as above; type: cell-based, Escherichia coli; settings: Escherichia coli, ATCC25922, read-out: MICs against Gram negative bacteria E. coli ATCC 25922
[5] = test system: A. baumannii ATCC 19606; assay: as above; type: cell-based, Acinetobacter baumannii
[6] = test system: B. thailandensis E264; assay: microbe, parasite or virus in culture; type: cell-based, Burkholderia thailandensis; settings: Burkholderia thailandensis, E264, read-out: MICs against Gram negative bacteria B. thailandensis E264
[7] = test system: K. pneumoniae ATCC 33495; assay: MIC on K. pneumoniae (Example 5); type: cell-based, Klebsiella pneumoniae; settings: sensitive strain
Description: (§1) MIC Values for all compounds were measured against a selection of bacterial strains. The MICs of 4-oxoquinolizines against a selection of Gram-negative and Gram-positive bacterial strains are shown in Table 13 in comparison with known antibiotics.

[8] = test system: B. thailandensis; type: cell-based, Burkholderia thailandensis
[9] = test system: K. pneumoniae BAA-2146 (NDM-1, FQ-R); assay: MIC on K. pneumoniae (Example 5); type: cell-based, Klebsiella pneumoniae; settings: quinolone-resistant strain
Description: as §1

[10] = Staphylococcus aureus, ATCC25923, read-out: MICs against Gram positive bacteria S. aureus ATCC 25923
[11] = Acinetobacter baumannii, ATCC19606, read-out: MICs against Gram negative bacteria A. baumannii ATCC 19606

| Compound | MIC [1, 10] [µg/mL] | MIC [2] [µg/mL] | MIC [4] [µg/mL] | further results |
| --- | --- | --- | --- | --- |
| Cc1n[nH]c2ccc(-c3ccn4c(=O)c(C(=O)[O-])cc(C5CC5)c4c3C)cc12.[K+] [Compound 80K salt, potassium 8-(3-methyl-1H-indazol-5-yl)-1-cyclopropyl-9-methyl-4-oxo-4H-quinolizine-3-carboxylate] | 50 | 50 |  | MIC [3]: 0.125 µg/mL |
| CC(=O)NCc1ccc(-c2ccn3c(=O)c(C(=O)[O-])cc(C4CC4)c3c2C)cc1.[K+] [Compound 64K salt, potassium 8-(4-(Acetamidomethyl)phenyl)-1-cyclopropyl-9-methyl-4-oxo-4H-quinolizine-3-carboxylate] |  |  | 0.125 |  |
| CNc1ccc(-c2ccn3c(=O)c(C(=O)[O-])cc(C4CC4)c3c2C)cn1.[K+] [Compound 78K salt, potassium 8-(6-(methylamino)pyridin-3-yl)-1-cyclopropyl-9-methyl-4-oxo-4H-quinolizine-3-carboxylate] |  |  |  | MIC [5, 11]: 0.125 µg/mL; MIC [3]: 0.125 µg/mL |
| Cc1c(-c2ccc3c(c2)C(=O)NC3)ccn2c(=O)c(C(=O)[O-])cc(C3CC3)c12.[K+] [Compound 68K salt, potassium 8-(3-oxoisoindolin-5-yl)-1-cyclopropyl-9-methyl-4-oxo-4H-quinolizine-3-carboxylate] | 50 | 50 |  |  |
| COc1cc(-c2ccn3c(=O)c(C(=O)[O-])cc(C4CC4)c3c2C)ccc1O.[K+] [Compound 66K salt, potassium 8-(4-hydroxy-3-methoxyphenyl)-1-cyclopropyl-9-methyl-4-oxo-4H-quinolizine-3-carboxylate] |  |  | 0.125 |  |
| Cc1c(-c2ccc(O)cc2)c(F)cn2c(=O)c(C(=O)[O-])cc(C3CC3)c12.[K+] [Compound 61K salt, potassium 8-(4-hydroxyphenyl)-1-cyclopropyl-7-fluoro-9-methyl-4-oxo-4H-quinolizine-3-carboxylate] | 50 | < 0.004 |  | MIC [5, 11]: 0.125 µg/mL |
| Cc1c(-c2ccc3c(cnn3C)c2)ccn2c(=O)c(C(=O)[O-])cc(C3CC3)c12.[K+] [Compound 81K salt, potassium 8-(1-methyl-1H-indazol-5-yl)-1-cyclopropyl-9-methyl-4-oxo-4H-quinolizine-3-carboxylate] | 50 | 50 |  | MIC [5, 11]: 0.125 µg/mL |
| Cc1c(-c2ccc3[nH]ncc3c2)c(F)cn2c(=O)c(C(=O)[O-])cc(C3CC3)c12.[K+] [Compound 75K salt, potassium 8-(1H-indazol-5-yl)-1-cyclopropyl-7-fluoro-9-methyl-4-oxo-4H-quinolizine-3-carboxylate] | 50 | 50 |  |  |
| Cc1c(-c2ccc3cn[nH]c3c2)ccn2c(=O)c(C(=O)[O-])cc(C3CC3)c12.[K+] [Compound 83K salt, potassium 8-(1H-indazol-6-yl)-1-cyclopropyl-9-methyl-4-oxo-4H-quinolizine-3-carboxylate] | 50 | 50 |  | MIC [6]: 0.125 µg/mL |
| Cc1cn2c(=O)c(C(=O)[O-])cc(C3CC3)c2c(C)c1-c1ccc2[nH]ncc2c1.[K+] [Compound 88K salt, potassium 8-(1H-indazol-5-yl)-1-cyclopropyl-7,9-dimethyl-4-oxo-4H-quinolizine-3-carboxylate] |  |  | 0.125 |  |
| C[C@H]1c2cccc(O)c2C(=O)C2=C(O)[C@]3(O)C(=O)C(C(N)=O)=C(O)[C@@H](N(C)C)[C@@H]3[C@@H](O)[C@@H]21 [Doxycycline, reference compound] |  |  |  | MIC ([5]; Acinetobacter baumannii, ATCC19606; read-out: MICs against Gram negative bacteria A. baumannii ATCC 19606): 0.125 µg/mL (≈ 0.281 µM); MIC ([1]; Staphylococcus aureus, ATCC25923; read-out: MICs against Gram positive bacteria S. aureus ATCC 25923): 0.125 µg/mL (≈ 0.281 µM) |
| Cc1c(-c2cc(F)c(N)cc2F)ccn2c(=O)c(C(=O)[O-])cc(C3CC3)c12.[K+] [Compound 2K salt, potassium 8-(4-amino-2,5-difluoro-phenyl)-1-cyclopropyl-9-methyl-4-oxo-4H-quinolizine-3-carboxylate] |  |  |  | MIC ([7]; Klebsiella pneumoniae, ATCC33495, read-out: MICs K. pneumoniae ATCC 33495): 0.25 µg/mL |
| Cc1c(-c2ccc3[nH]nc(C4CC4)c3c2)ccn2c(=O)c(C(=O)[O-])cc(C3CC3)c12.[K+] [Compound 71K salt, potassium 8-(3-cyclopropyl-1H-indazol-5-yl)-1-cyclopropyl-9-methyl-4-oxo-4H-quinolizine-3-carboxylate] | 50 | 50 | 0.125 | MIC [3]: 0.125 µg/mL |
| Cc1c(-c2cccc(O)c2)ccn2c(=O)c(C(=O)[O-])cc(C3CC3)c12.[K+] [Compound 56K salt, potassium 1-cyclopropyl-8-(3-hydroxyphenyl)-9-methyl-4-oxo-4H-quinolizine-3-carboxylate] |  |  |  | MIC [5, 11]: 0.125 µg/mL; MIC [3]: 0.125 µg/mL |
| Cc1c(-c2ccc(O)c(F)c2)ccn2c(=O)c(C(=O)[O-])cc(C3CC3)c12.[K+] [Compound 70K salt, potassium 8-(3-fluoro-4-hydroxyphenyl)-1-cyclopropyl-9-methyl-4-oxo-4H-quinolizine-3-carboxylate] | 50 | 50 |  | MIC [5, 11]: 0.125 µg/mL |
| Cc1cc(-c2ccn3c(=O)c(C(=O)[O-])cc(C4CC4)c3c2C)cnc1N.[K+] [Compound 79K salt, potassium 8-(6-amino-5-methylpyridin-3-yl)-1-cyclopropyl-9-methyl-4-oxo-4H-quinolizine-3-carboxylate] | 50 | 50 |  | MIC [3]: 0.125 µg/mL |
| 8-(4-amino-3-ethyl-5-methyl- phenyl)-1-cyclopropyl-9- methyl-4-oxo-quinolizine-3- carboxylic acid [Compound 16] |  |  |  | MIC90 B. thailandensis [8]: <0.048 µg/mL |
| COc1c(-c2ccc3[nH]ncc3c2)ccn2c(=O)c(C(=O)[O-])cc(C3CC3)c12.[K+] [Compound 90K salt, potassium 8-(1H-indazol-5-yl)-1-cyclopropyl-9-methoxy-4-oxo-4H-quinolizine-3-carboxylate] |  |  | 0.125 |  |
| Cc1c(-c2ccc(N3CCNCC3)nc2)ccn2c(=O)c(C(=O)[O-])cc(C3CC3)c12.[K+] [Compound 84K salt, potassium 8-(6-(piperazin-1-yl)pyridin-3-yl)-1-cyclopropyl-9-methyl-4-oxo-4H-quinolizine-3-carboxylate] | 0.125 | 0.125 |  |  |
| CNc1ccc(-c2ccn3c(=O)c(C(=O)[O-])cc(C4CC4)c3c2C)cc1C.[K+] [Compound 69K salt, potassium 8-(3-methyl-4-(methylamino)phenyl)-1-cyclopropyl-9-methyl-4-oxo-4H-quinolizine-3-carboxylate] | 50 | 50 | 0.125 |  |
| Cc1cn2c(=O)c(C(=O)[O-])cc(C3CC3)c2c(C)c1-c1ccc(N)nc1.[K+] [Compound 87K salt, potassium 8-(6-amino-pyridin-3-yl)-1-cyclopropyl-7,9-dimethyl-4-oxo-4H-quinolizine-3-carboxylate] |  |  | 0.125 |  |
| Cc1c(-c2ccc3c(c2)CCN3)ccn2c(=O)c(C(=O)[O-])cc(C3CC3)c12.[K+] [Compound 77K salt, potassium 8-(indolin-5-yl)-1-cyclopropyl-9-methyl-4-oxo-4H-quinolizine-3-carboxylate] |  |  | 0.125 |  |
| Cc1c(-c2ccc(N)nc2)ccn2c(=O)c(C(=O)[O-])cc(C3CC3)c12.[K+] [Compound 33K salt, potassium 8-(6-amino-pyridin-3-yl)-1-cyclopropyl-9-methyl-4-oxo-4H-quinolizine-3-carboxylate] |  |  |  | MICs K. pneumoniae ATCC 33495 [7]: 0.064 µg/mL; MICs K. pneumoniae BAA-2146 (NDM-1, FQ-R) [9]: >8 µg/mL |
| Cc1c(-c2ccc3sc(N)nc3c2)ccn2c(=O)c(C(=O)[O-])cc(C3CC3)c12.[K+] [Compound 73K salt, potassium 8-(2-aminobenzo[d]thiazol-5-yl)-1-cyclopropyl-9-methyl-4-oxo-4H-quinolizine-3-carboxylate] | 50 | 50 |  | MIC [5, 11]: 0.125 µg/mL |
| Cc1c(-c2ccc(CN)s2)ccn2c(=O)c(C(=O)[O-])cc(C3CC3)c12.[K+] [Compound 13K salt, potassium 8-(5-(aminomethyl)thiophen-2-yl)-1-cyclopropyl-9-methyl-4-oxo-4H-quinolizine-3-carboxylate] |  |  |  | MIC [5, 11]: 0.125 µg/mL |
| COc1c(-c2ccc(N)nc2)ccn2c(=O)c(C(=O)[O-])cc(C3CC3)c12.[K+] [Compound 89K salt, potassium 8-(6-amino-pyridin-3-yl)-1-cyclopropyl-9-methoxy-4-oxo-4H-quinolizine-3-carboxylate] |  |  | 0.125 |  |
| Cc1c(-c2cnc3[nH]ccc3c2)ccn2c(=O)c(C(=O)[O-])cc(C3CC3)c12.[K+] [Compound 85K salt, potassium 8-(1H-pyrrolo[2,3-b]pyridin-5-yl)-1-cyclopropyl-9-methyl-4-oxo-4H-quinolizine-3-carboxylate] | 50 | 50 |  |  |
